# What was measured:
# Type in all cases: biochemical
# TNIK = TNIK (Homo sapiens, UniProt Q9UKE5); assay: Enzymatic kinase assay, TNIK
# Procedure: [Worded in the source for another target; this target is reported under the same test.] (§1) The anti-JNK3 activity of compounds prepared as in the previous examples was evaluated using a Reaction Biology Corp. HotSpot Kinase Assay. Base reaction buffer was 20 mM HEPES (4-(2-hydroxyethyl)-1-piperazineethanesulfonic acid) at pH 7.5 with 10 mM MgCl2, 1 mM EGTA (ethylene glycol-bis(β-aminoethyl ether)-N,N,N′,N′-tetracetic acid), 0.02% Brij™ 35, 0.02 mg/mL BSA (bovine serum albumin), 0.1 mM Na3VO4, 2 mM DTT (dithiothreitol), and 1% DMSO. Required cofactors were added individually to each kinase reaction.
# (§2) Kinase activity was evaluated as follows: • (1) Substrate was dissolved in freshly prepared reaction buffer • (2) Any required cofactors were dissolved in the substrate solution • (3) Kinase was added to the substrate solution followed by gentle mixing • (4) Compounds to be tested dissolved in 100% DMSO were added to the kinase reaction mixture using an Echo550 acoustic liquid handler (Labcyte, San Jose, CA) and incubated for 20 minutes at room temperature • (5) ^33P-ATP was added to the reaction mixture to initiate the kinase reaction • (6) The reaction mixture was incubated for 2 hours at room temperature • (7) Kinase activity was detected by spotting the kinase reaction on Whatman P81 paper, exposing and developing the images using a phosphorimager, and quantifying counts to determine kinase activity
# HGK = HGK (Homo sapiens, UniProt O95819); assay: Enzymatic kinase assay, HGK
# Sequence of HGK (O95819 whole entry): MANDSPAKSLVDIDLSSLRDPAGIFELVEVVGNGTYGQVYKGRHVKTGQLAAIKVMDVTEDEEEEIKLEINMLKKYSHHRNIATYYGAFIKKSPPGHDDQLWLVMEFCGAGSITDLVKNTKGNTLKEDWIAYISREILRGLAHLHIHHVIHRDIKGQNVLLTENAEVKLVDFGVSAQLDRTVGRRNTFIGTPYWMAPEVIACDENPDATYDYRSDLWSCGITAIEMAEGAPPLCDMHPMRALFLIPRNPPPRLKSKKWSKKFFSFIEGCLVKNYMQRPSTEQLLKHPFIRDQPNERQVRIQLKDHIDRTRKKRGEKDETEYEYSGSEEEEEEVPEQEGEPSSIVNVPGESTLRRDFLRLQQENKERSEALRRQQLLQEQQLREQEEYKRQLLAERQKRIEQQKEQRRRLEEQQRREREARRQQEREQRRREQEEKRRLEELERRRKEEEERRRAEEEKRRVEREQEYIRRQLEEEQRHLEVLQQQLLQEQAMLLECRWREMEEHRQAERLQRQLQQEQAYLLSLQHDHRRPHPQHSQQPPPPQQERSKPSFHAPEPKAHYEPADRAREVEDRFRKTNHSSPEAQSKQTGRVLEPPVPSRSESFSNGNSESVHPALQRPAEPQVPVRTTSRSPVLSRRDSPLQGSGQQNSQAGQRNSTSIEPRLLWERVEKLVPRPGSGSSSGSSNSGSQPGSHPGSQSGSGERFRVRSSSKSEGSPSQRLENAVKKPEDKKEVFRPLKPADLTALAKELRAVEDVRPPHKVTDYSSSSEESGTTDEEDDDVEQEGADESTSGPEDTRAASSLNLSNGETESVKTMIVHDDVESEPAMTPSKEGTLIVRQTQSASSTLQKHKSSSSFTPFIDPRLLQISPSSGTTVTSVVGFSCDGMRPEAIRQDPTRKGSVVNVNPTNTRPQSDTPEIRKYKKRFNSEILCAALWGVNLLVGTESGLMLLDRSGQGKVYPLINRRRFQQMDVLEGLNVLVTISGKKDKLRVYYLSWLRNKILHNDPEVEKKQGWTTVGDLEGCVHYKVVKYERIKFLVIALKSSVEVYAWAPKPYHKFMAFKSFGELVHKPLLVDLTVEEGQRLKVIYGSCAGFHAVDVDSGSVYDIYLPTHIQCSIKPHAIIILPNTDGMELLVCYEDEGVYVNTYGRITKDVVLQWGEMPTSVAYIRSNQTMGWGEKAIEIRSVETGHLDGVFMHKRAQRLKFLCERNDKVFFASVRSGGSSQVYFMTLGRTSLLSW
# Procedure: [Worded in the source for another target; this target is reported under the same test.] as §1, §2
# p38a = biological target: T1, p38a (Homo sapiens, UniProt Q16539); assay: HotSpot Kinase Assay, P38a; conditions: HotSpot radiometric assay, 33P-ATP
# T1 construct: purchased Reaction Biology Corp
# T1 sequence (Q16539 whole entry): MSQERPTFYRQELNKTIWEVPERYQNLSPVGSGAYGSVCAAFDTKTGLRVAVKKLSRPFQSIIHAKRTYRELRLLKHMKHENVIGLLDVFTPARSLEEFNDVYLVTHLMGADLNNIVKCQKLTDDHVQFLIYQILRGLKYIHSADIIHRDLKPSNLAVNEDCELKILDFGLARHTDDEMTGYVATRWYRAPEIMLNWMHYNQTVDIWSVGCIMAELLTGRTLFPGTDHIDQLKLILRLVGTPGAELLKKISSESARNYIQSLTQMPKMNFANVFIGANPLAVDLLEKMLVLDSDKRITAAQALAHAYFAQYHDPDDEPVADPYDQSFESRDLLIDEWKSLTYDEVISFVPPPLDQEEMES
# Procedure, shortened: (§3)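 Radiometric HotSpot kinase assay in 20 mM HEPES pH 7.5 with 10 mM MgCl2, 1 mM EGTA, 0.02% Brij 35, 0.02 mg/mL BSA, 0.1 mM Na3VO4, 2 mM DTT and 1% DMSO. Cofactors were added per kinase, with the same format for all three kinases.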
# JNK3 = biological target: T2, JNK3 (Homo sapiens, UniProt P53779); assay: HotSpot Kinase Assay (Reaction Biology Corp.), anti-JNK3 activity; conditions: HotSpot radiometric assay, 33P-ATP
# T2 construct: purchased Reaction Biology Corp
# Procedure, shortened: as §3
# MINK1 = MINK1 (Homo sapiens, UniProt Q8N4C8); assay: Enzymatic kinase assay, MINK1
# Sequence of MINK1 (Q8N4C8 whole entry): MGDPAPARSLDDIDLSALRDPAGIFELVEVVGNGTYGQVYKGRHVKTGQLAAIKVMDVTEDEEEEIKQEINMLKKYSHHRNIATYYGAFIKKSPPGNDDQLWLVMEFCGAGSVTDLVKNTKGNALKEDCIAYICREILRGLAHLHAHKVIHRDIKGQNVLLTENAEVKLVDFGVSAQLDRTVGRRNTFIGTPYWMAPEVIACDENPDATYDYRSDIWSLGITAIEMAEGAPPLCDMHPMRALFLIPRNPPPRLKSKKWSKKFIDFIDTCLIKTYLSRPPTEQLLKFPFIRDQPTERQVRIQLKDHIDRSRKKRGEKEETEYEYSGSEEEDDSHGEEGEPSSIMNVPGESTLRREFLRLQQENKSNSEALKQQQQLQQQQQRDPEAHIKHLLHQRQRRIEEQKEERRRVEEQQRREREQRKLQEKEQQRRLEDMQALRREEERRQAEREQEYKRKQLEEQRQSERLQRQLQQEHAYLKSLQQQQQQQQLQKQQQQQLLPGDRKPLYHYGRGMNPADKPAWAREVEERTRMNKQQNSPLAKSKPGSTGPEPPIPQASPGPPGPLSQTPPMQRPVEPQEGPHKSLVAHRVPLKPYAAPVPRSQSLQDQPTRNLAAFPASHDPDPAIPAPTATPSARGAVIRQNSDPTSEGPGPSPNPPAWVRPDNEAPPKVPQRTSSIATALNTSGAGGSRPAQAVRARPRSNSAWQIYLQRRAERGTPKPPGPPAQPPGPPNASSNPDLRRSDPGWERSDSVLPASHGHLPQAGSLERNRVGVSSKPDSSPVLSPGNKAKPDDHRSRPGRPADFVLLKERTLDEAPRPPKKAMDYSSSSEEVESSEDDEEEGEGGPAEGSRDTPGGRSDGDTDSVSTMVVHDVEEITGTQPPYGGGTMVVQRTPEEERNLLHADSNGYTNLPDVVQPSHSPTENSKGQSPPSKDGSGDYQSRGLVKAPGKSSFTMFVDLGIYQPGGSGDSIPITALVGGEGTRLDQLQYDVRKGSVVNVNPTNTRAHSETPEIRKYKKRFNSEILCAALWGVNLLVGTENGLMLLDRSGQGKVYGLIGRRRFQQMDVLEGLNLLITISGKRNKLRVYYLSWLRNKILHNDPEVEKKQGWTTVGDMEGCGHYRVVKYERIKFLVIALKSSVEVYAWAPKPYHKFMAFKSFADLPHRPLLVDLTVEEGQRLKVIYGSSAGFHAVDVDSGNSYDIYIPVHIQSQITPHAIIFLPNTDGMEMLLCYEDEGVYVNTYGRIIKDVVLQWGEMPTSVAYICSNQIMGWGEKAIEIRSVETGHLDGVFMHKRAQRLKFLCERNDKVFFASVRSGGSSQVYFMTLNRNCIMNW
# JNK1 = biological target: T3, JNK1 (Homo sapiens, UniProt P45983); assay: HotSpot Kinase Assay, JNK1; conditions: HotSpot radiometric assay, 33P-ATP
# T3 construct: purchased Reaction Biology Corp
# T3 sequence (P45983 whole entry): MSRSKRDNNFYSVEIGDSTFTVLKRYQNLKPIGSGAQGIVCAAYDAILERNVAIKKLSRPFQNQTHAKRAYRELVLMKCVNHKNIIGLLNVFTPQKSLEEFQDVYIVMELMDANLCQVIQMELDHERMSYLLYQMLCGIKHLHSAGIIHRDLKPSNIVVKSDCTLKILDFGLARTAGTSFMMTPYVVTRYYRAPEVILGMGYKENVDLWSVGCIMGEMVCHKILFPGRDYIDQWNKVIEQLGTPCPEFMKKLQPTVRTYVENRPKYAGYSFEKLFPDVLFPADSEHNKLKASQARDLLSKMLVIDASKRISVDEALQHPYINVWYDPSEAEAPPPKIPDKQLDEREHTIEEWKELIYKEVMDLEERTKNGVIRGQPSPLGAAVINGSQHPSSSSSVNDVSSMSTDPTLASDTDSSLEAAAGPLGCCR
# Procedure, shortened: as §3
# DDR1 = DDR1 (Homo sapiens, UniProt Q08345); assay: Enzymatic kinase assay, DDR1
# Procedure: [Worded in the source for another target; this target is reported under the same test.] as §1, §2
# Abl-1 = Abl-1 (Homo sapiens, UniProt P00519); assay: Enzymatic kinase assay, Abl-1
# Procedure: [Worded in the source for another target; this target is reported under the same test.] as §1, §2
# Sequence of TNIK (Q9UKE5 whole entry): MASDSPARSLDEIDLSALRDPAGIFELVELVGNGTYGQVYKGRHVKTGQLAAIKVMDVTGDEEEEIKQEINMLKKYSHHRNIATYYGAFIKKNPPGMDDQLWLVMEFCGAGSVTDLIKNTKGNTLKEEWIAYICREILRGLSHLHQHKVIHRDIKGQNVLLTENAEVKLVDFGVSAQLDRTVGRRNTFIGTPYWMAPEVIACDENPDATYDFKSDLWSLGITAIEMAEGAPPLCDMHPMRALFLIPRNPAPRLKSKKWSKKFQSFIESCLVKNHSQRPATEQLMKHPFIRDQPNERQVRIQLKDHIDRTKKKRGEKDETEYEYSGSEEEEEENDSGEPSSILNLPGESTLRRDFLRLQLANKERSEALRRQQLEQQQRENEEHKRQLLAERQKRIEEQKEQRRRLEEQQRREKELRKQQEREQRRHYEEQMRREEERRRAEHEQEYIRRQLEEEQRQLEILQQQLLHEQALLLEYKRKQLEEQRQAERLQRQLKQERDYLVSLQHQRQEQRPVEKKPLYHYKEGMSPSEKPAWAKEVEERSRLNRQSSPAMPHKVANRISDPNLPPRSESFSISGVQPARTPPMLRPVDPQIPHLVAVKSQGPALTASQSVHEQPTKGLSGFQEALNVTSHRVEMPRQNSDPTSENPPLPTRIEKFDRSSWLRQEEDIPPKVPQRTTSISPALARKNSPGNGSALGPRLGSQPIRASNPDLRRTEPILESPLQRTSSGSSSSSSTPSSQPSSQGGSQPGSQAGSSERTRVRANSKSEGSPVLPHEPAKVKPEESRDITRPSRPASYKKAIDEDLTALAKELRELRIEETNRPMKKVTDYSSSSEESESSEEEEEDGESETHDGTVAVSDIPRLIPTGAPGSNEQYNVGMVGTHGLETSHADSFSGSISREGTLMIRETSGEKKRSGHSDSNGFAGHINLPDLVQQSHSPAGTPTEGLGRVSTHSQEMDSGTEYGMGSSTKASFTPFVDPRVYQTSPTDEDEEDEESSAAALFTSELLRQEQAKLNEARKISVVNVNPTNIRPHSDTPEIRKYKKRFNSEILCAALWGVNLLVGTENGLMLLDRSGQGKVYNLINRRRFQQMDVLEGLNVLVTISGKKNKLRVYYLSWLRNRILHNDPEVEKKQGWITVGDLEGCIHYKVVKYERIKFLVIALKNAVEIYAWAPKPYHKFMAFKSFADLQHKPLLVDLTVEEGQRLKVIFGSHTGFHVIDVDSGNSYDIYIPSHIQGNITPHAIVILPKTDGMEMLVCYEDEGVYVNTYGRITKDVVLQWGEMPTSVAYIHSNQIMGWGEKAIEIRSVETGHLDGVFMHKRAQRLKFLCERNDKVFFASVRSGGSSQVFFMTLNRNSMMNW
Structure (SMILES),IC50 (TNIK) [nM],IC50 (HGK) [nM],IC50 (p38a) [nM],IC50 (JNK3) [nM],IC50 (MINK1) [nM],IC50 (JNK1) [nM],IC50 (DDR1) [nM],IC50 (Abl-1) [nM]
"CNC(=O)c1cc(-n2ncc3cc(Nc4cccc(C)c4Cl)ncc32)cs1 [Compound 25, 4-(5-((2-chloro-3-methylphenyl)amino)-1H-pyrazolo[3,4-c]pyridin-1-yl)-N-methylthiophene-2-carboxamide]",< 200,< 200,200 to 1000,< 200,< 200,200 to 1000,–,–
"CN1CCN=C1NC(=O)c1cc(-n2ncc3nc(Nc4ccccc4Cl)ccc32)cs1 [Compound 58, 4-(5-((2-chlorophenyl)amino)-1H-pyrazolo[4,3-b]pyridin-1-yl)-N-(1-methyl-4,5-dihydro-1H-imidazol-2-yl)thiophene-2-carboxamide]",< 200,< 200,> 1000,< 200,< 200,> 1000,< 200,> 1000
"CNC(=O)c1cc(-n2ncc3cc(Nc4c(F)cccc4Cl)c(OC)cc32)cs1 [Compound 91, 4-(5-((2-chloro-6-fluorophenyl)amino)-6-methoxy-1H-indazol-1-yl)-N-methylthiophene-2-carboxamide]",< 200,< 200,200 to 1000,< 200,200 to 1000,> 1000,< 200,200 to 1000
"CNC(=O)c1cc(-n2ncc3cc(Nc4c(F)cccc4OC)ccc32)cs1 [Compound 93, 4-(5-((2-fluoro-6-methoxyphenyl)amino)-1H-indazol-1-yl)-N-methylthiophene-2-carboxamide]",–,–,200 to 1000,< 200,–,> 1000,200 to 1000,–
"CNC(=O)c1cc(-n2ncc3cc(Nc4c(Cl)cccc4OC)ncc32)cs1 [Compound 108, 4-(5-((2-chloro-6-methoxyphenyl)amino)-1H-pyrazolo[3,4-c]pyridin-1-yl)-N-methylthiophene-2-carboxamide]",< 200,< 200,200 to 1000,< 200,< 200,> 1000,200 to 1000,> 1000
"COc1cccc(Cl)c1Nc1cc2cnn(-c3csc(C(=O)NC4COC4)c3)c2nc1C [Compound 110, 4-(5-((2-chloro-6-methoxyphenyl)amino)-6-methyl-1H-pyrazolo[3,4-b]pyridin-1-yl)-N-(oxetan-3-yl)thiophene-2-carboxamide]",200 to 1000,> 1000,200 to 1000,< 200,> 1000,> 1000,> 1000,> 1000
